Measured values reported in patent publication US6670363B1, “Azole compounds as therapeutic agents for fungal infections” (Ranbaxy Laboratories Limited, priority 2000, dated 2003).
Values after ≈ are worked out from the molar mass of the structure shown.

Legend:
Assay type in all cases: cell-based
A. fumigatus s 1008 = assay: In vitro MIC, NCCLS M38P broth method (RPMI 1640/MOPS pH7), Aspergillus fumigatus; settings: A. fumigatus strain 1008
Candida = assay: In vitro MIC, NCCLS M27A, Candida species; design: MIC, Candida albicans 1.549 / MIC, Candida albicans Y-01-19 / MIC, C. krusei 766-1 / MIC, C. krusei Q. C / MIC, Candida tropicalis ATCC / MIC, C. glabrata 90030: unit not given beside the values; MIC, Candida albicans A 26 / MIC, C. parapsilosis Q. C.: unit not given here; settings: for MIC, C. glabrata 90030: C. glabrata strain 90030; for MIC, C. krusei 766-1: C. krusei strain 766-1; for MIC, C. krusei Q. C: C. krusei strain Q. C; for MIC, C. parapsilosis Q. C.: C. parapsilosis strain Q. C.; for MIC, Candida albicans 1.549: Candida albicans strain 1.549; for MIC, Candida albicans A 26: Candida albicans strain A 26; for MIC, Candida albicans Y-01-19: Candida albicans strain Y-01-19
Cryptococcus neoformans = assay: In vitro MIC, NCCLS M27A, Cryptococcus neoformans; design: MIC, C. neoformans I: unit not given beside the values; MIC, C. neoformans M 106: unit not given here; settings: for MIC, C. neoformans I: C. neoformans strain I; for MIC, C. neoformans M 106: C. neoformans strain M 106
Histoplasma capsulatum = system: Histoplasma capsulatum

Row | Compound | MIC, A. fumigatus 1008 (A. fumigatus s 1008) | MIC, C. glabrata 90030 (Candida) | MIC, C. krusei 766-1 (Candida) | MIC, C. krusei Q. C (Candida) | MIC, C. parapsilosis Q. C. (Candida) | MIC, Candida albicans 1.549 (Candida) | MIC, Candida albicans A 26 (Candida) | MIC, Candida albicans Y-01-19 (Candida) | MIC, Candida tropicalis ATCC (Candida) | MIC, C. neoformans I (Cryptococcus neoformans) | MIC, C. neoformans M 106 (Cryptococcus neoformans) | MIC, H. capsulatum (Histoplasma capsulatum) [µg/mL]
1 | C[C@@H](n1ncn(-c2ccc(N3CCN(c4ccc(F)c(Cl)c4)CC3)cc2)c1=O)[C@@](O)(Cn1cncn1)c1ccc(F)cc1F [Compound 16, 2-{[1R2S/1S2R]-2-(2,4-Difluorophenyl)-2-hydroxy-1-methyl-3-(1H-1,2,4-triazol-1-yl)propyl}-4-{4-[4-(3-chloro-4-fluorophenyl)-1-piperazinyl]phenyl}-3-(2H,4H)-1,2,4-triazolone] | >16 | 0.50 | >16 | 1.00 | 0.06 | 4.00 | <0.03 | 1.00 | <0.03 | 0.12 | 0.12 | 0.5 (≈ 0.8 µM)
2 | C[C@@H](n1ncn(-c2ccc(N3CCN(c4cccc(C(F)(F)F)c4)CC3)cc2)c1=O)[C@@](O)(Cn1cncn1)c1ccc(F)cc1F [Compound 10, 2-{[1R2S/1S2R]-2-(2,4-Difluorophenyl)-2-hydroxy-1-methyl-3-(1H-1,2,4-triazol-1-yl)propyl}-4-{4-[4-(3-trifluoromethylphenyl)-1-piperazinyl]phenyl}-3-(2H,4H)-1,2,4-triazolone] | >16 | 0.50 | >16 | 1.00 | <0.03 | 0.50 | <0.03 | 1.00 | <0.03 | 0.06 | <0.03 | 0.06 (≈ 0.0937 µM)
3 | C[C@@H](n1ncn(-c2ccc(N3CCN(c4ccc([N+](=O)[O-])cc4[N+](=O)[O-])CC3)cc2)c1=O)[C@](O)(Cn1cncn1)c1ccc(F)cc1F [Compound 3, 2-{[1R2R/1S2S]-2-(2,4-Difluorophenyl)-2-hydroxy-1-methyl-3-(1H-1,2,4-triazol-1-yl)propyl}-4-{4-[4-(2,4-dinitrophenyl)-1-piperazinyl]phenyl}-3-(2H,4H)-1,2,4-triazolone] | 0.25 | 0.25 | 1.00 | 0.50 | <0.03 | 0.12 | <0.03 | 0.50 | <0.03 | <0.03 | <0.03 | < 0.03
4 | COc1ccc(N2CCN(c3ccc(-n4cnn([C@H](C)[C@](O)(Cn5cncn5)c5ccc(F)cc5F)c4=O)cc3)CC2)cc1 [Compound 13, 2-{[1R2R/1S2S]-2-(2,4-Difluorophenyl)-2-hydroxy-1-methyl-3-(1H-1,2,4-triazol-1-yl)propyl}-4-{4-[4-(4-methoxyphenyl)-1-piperazinyl]phenyl}-3-(2H,4H)-1,2,4-triazolone] | 0.25 | 0.50 | 0.50 | 0.12 | <0.03 | 0.12 | <0.03 | 0.25 | <0.03 | <0.03 | <0.03 | 0.06 (≈ 0.0996 µM)
5 | Cc1nn(CC(O)(Cn2cncn2)c2ccc(F)cc2F)c(=O)n1-c1ccc(N2CCN(c3ccc(Cl)cc3)CC2)cc1 (stereo not drawn) [Compound 46, 2-[2-(2,4-Difluorophenyl)-2-hydroxy-3-(1H-1,2,4-triazol-1-yl)propyl]-4-{4-[4-(4-chlorophenyl)-1-piperazinyl]phenyl}-3-(2H,4H)-5-methyl-1,2,4-triazolone] | >12.5 | 6.25 | 3.12 | 0.80 | <0.02 | 0.40 | <0.02 | 0.40 | 0.05 | 0.05 | 0.40 | 0.1 (≈ 0.165 µM)
6 | COc1ccccc1N1CCN(c2ccc(-n3c(C)nn(CC(O)(Cn4cncn4)c4ccc(F)cc4F)c3=O)cc2)CC1 (stereo not drawn) [Compound 35, 2-[2-(2,4-Difluorophenyl)-2-hydroxy-3-(1H-1,2,4-triazol-1-yl)propyl]-4-{4-[4-(2-methoxyphenyl)-1-piperazinyl]phenyl}-3-(2H,4H)-5-methyl-1,2,4-triazolone] | >12.5 | 12.50 | 12.50 | 3.12 | 0.20 | 1.56 | <0.02 | 3.12 | <0.02 | 0.80 | 3.12 | 0.2 (≈ 0.332 µM)
7 | Cc1nn([C@H](C)[C@](O)(Cn2cncn2)c2ccc(F)cc2F)c(=O)n1-c1ccc(N2CCN(c3ccc(Cl)cc3Cl)CC2)cc1 [Compound 33, 2-{[1R2R/1S2S]-2-(2,4-Difluorophenyl)-2-hydroxy-1-methyl-3-(1H-1,2,4-triazol-1-yl)propyl}-4-{4-[4-(2,4-dichlorophenyl)-1-piperazinyl]phenyl}-3-(2H,4H)-5-methyl-1,2,4-triazolone] | 0.50 | 0.25 | 0.25 | 0.06 | <0.03 | 0.13 | <0.03 | 0.13 | <0.03 | <0.03 | <0.03 | 0.12 (≈ 0.183 µM)
8 | COc1ccc(F)cc1N1CCN(c2ccc(-n3c(C)nn([C@H](C)[C@](O)(Cn4cncn4)c4ccc(F)cc4F)c3=O)cc2)CC1 [Compound 27, 2-{[1R2R/1S2S]-2-(2,4-Difluorophenyl)-2-hydroxy-1-methyl-3-(1H-1,2,4-triazol-1-yl)propyl}-4-{4-[4-(2-methoxy-5-fluorophenyl)-1-piperazinyl]phenyl}-3-(2H,4H)-5-methyl-1,2,4-triazolone] | >16 | 1.00 | 2.00 | 0.50 | <0.03 | 1.00 | <0.03 | 0.50 | <0.03 | <0.03 | <0.03 | < 0.03
